Experimental data as given in PMC4985813, “Binding site elucidation and structure guided design of macrocyclic IL-17A antagonists” (Scientific Reports, 2016).
Several values for one entry are separate records, joined by “and”; a condition that tells them apart may be missing. Equal entries are not always repeated. Entries after “also recorded” stand apart in the source; their conditions may differ. Where two headings read alike, the source gives them in different places.

Experiments:
[1] = system: IL-17A-stimulated human keratinocytes; assay: Primary human keratinocytes cell assay, IL-8 production stimulated by IL-17A and TNF-α; format: cell-based; conditions: for IC50: Homo sapiens, Keratinocyte
Protocol: (§1) Primary human keratinocytes were cultured in Epilife medium with EDGS (Life Technology, Cascade Biologics) following product instructions. 5 days after establishing the culture from frozen vials, cells were plated at 10,000/well (80 μL) in culture media in 384-well plates. 4 h after plating, 10 μL of 10× compound stocks were added. Final DMSO concentration was 1%. Immediately after compound addition, 10 μL of a mixture of recombinant human IL-17A (R&D System, Minneapolis, MN) (5 ng/mL final) and TNF-α (Sigma-Aldrich, St Louis, MO) (10 ng/mL final), or TNF-α alone (10 ng/mL) were added to the cells. Cell assay plates were incubated for 48 h at 37 °C in a tissue culture incubator. Culture supernatants were harvested for analysis of IL-8 production using kit K211ANB-2 (Meso Scale Discovery, Rockville, MD).

[2] = biological target: T1, IL-17F homodimer (Homo sapiens, UniProt Q96PD4); assay: SPR selectivity binding, immobilized IL-17F; conditions: for binding to IL-17F (SPR): concentrations up to 13.3 μM
T1 construct: purchased R&D Systems, Minneapolis, MN
T1 sequence (Q96PD4 31-163): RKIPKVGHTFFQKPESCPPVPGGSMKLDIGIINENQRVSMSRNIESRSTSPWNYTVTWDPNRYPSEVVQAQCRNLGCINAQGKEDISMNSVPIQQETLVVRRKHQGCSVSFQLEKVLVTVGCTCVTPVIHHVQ
Protocol: (§2) The IL-17 SPR binding assay was run on a Biacore 3000 SPR instrument (GE Healthcare). Biotinylated Bap-tagged human IL-17A[23], was captured on a Biacore Streptavidin chip to achieve a protein density of 2500–3500 RUs on the surface. The SPR running buffer was 10 mM HEPES, pH 7.4, 150 mM NaCl, 0.01% P20 with 3% DMSO. Compound samples were injected at a flow rate of 50 μL/min for 180 s association and followed by running buffer for at least 600 s to detect dissociation. Compound concentrations were varied across a 2–3 fold dilution series. Each concentration was tested at least in duplicate. When compounds were tested in the presence of HAP, the running buffer contained 50 nM of HAP and all samples were prepared in the running buffer. Multiple blank injections were run before and after each compound series for references. The data were processed and analyzed with Scrubber 2.0 (BioLogical Software) and Biaeval software (GE Healthcare) to calculate the binding constants along with on- and off-rates.
(§3) Biotinylated BAP-tagged IL-17RA ECD[17] and chemically biotinylated IL-17F (R&D Systems, Minneapolis, MN) were separately immobilized on Biacore Streptavidin chips to permit selectivity testing of compounds. The binding experiments were carried out as described above.

[3] = biological target: T2, IL-17RA (Homo sapiens, UniProt Q96F46); assay: SPR selectivity binding, immobilized IL-17RA ECD
T2 construct: Biotinylated BAP-tagged IL-17RA ECD[17]
T2 sequence (Q96F46 33-320 limits assumed): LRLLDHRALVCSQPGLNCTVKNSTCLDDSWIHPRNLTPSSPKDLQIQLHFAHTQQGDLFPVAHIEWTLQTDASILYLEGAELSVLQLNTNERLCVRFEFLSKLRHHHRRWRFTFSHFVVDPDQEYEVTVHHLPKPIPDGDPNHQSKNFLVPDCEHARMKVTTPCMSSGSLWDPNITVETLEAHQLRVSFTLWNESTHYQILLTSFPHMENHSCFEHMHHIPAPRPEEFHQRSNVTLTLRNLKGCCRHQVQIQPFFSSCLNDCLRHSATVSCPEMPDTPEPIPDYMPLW
Protocol: as §2, §3

[4] = biological target: T3, IL-17A/IL-17RA interaction (Homo sapiens, UniProt Q16552); assay: FRET assay of IL-17A/IL-17RA interaction; format: biochemical
T3 construct: purchased R&D Systems (IL-17RA-Fc only)
T3 sequence (Q16552 24-155): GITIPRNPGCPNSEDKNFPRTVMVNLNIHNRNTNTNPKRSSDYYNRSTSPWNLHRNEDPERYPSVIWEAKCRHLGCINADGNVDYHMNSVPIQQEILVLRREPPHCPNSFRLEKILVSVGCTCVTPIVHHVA
Protocol: Maximal FRET was observed when IL-17A was bound to IL-17RA and diminished FRET was observed when IL-17A was separated from IL-17RA. […] Compounds were tested using a half-log dilution series of 11 concentrations. The IL-17A was incubated with the Europium-Streptavidin to 1.5X final assay concentration for 1 h at room temperature. Compounds were prepared at 50X final concentration in 100% DMSO and 300 nL were added to a 384-well white assay plate (Greiner). 10 μL of the Europium labeled IL-17A was added to the compounds and incubated at room temperature for 1 h. […] The plates were covered and incubated at room temperature for 3 h. The FRET signal of the IL-17A/IL-17RA interaction was measured using an EnVision Multilabel plate reader (PerkinElmer). […] A four-parameter logistic nonlinear regression model using the percent inhibition at each concentration was used to calculate an IC50 for each compound.

[5] = system: keratinocytes stimulated by TNF-α alone; assay: Primary human keratinocytes cell assay, baseline IL-8 production stimulated by TNF-α alone; format: cell-based; conditions: Keratinocyte, TNF-α 10 ng/mL alone
Protocol: as §1

[6] = biological target: human IL-17A (Homo sapiens, UniProt Q16552); assay: SPR binding assay, immobilized IL-17A
human IL-17A, sequence (Q16552 24-155): as above
Protocol: as §2, with “When compounds were tested in the presence of HAP, the running buffer contained 50 nM of HAP and all samples were prepared in the running buffer.” left out

[7] = biological target: T4, full-length recombinant IL-17A (Homo sapiens, UniProt Q16552); assay: Covalent labeling of IL-17A with sulfonyl fluoride probe (pull-down, protein mass analysis, peptide mapping); format: biochemical
T4 construct: made in house
T4 sequence (Q16552 24-155): as above
Protocol: Human recombinant IL-17A expressed in E. coli (5 μM) was incubated with and without compound 4 (50 μM) for 20 h at 37 °C in Dulbecco’s phosphate-buffered saline solution. To analyze cytokine homodimer, 10 μL of each sample was subjected to LC-MS using an Acquity class H UPLC (Waters) interfaced to a Xevo G2–S Q-Tof mass spectrometer (Waters). Chromatography was performed on a 2.1 × 100 mm Acquity BEH 300 Å C4 column (1.7 μm silica) (Waters) at 40 °C using the following gradient: 5% B/1 min, 5–85% B/10 min at 0.4 mL/min. Solvents: A, 0.05% formic acid in water; B, 0.05% formic acid in acetonitrile. […]
100 μL of each reaction sample was treated with three volumes of acetone at −20 °C for 2 h, after which the mixture was centrifuged at 14,000 × g for 10 min. […] Each digest was next treated with 4.5 mM DTT for 15 min at 37 °C, and 8 μL of each digest was analyzed on an Agilent Model 1100 HPLC system interfaced with a LTQ Orbitrap XL mass spectrometer (Thermo). […]
0.5 μM full length IL-17A (R&D Systems) was pre-incubated with DMSO or 50 μM a control compound in PBS at room temperature for 30 min, after which 5 μM sulfonyl fluoride probe compound 4 was added to the protein mixture (final sample volume 50 μl) and incubated for 1 h. […] Eluates were separated on a 12% NuPAGE Bis-Tris gel, transferred to a PVDF membrane, and then analyzed by immunoblot (anti-IL17A antibody from R&D Systems).

**Q.** `CN(C)C(=O)CC1(CC(=O)NCCc2ccc(NC(=O)[C@H](Cc3ccccc3F)NC(=O)c3ccnn3C)cc2)CCCC1` [Compound 1] was tested. Which “modulation of IL-8 production in IL-17A-stimulated human keratinocytes” value ([1]; in the presence of TNF-α) did it give?
**A.** insufficient to modulate

**Q.** And the “binding to IL-17F homodimer (SPR)” value ([2]; concentrations up to 40 μM)?
**A.** no measurable binding; also recorded: did not show any measurable binding

**Q.** And the “binding to IL-17RA (SPR)” value ([3]; concentrations up to 40 μM)?
**A.** no measurable binding; also recorded: did not show measurable binding

**Q.** Which IC50 [4] does the source give for `CNC(=O)[C@H]1Cc2ccc(cc2)NC(=O)[C@@H](NC(=O)c2ccnn2C)Cc2cc(ccc2Cl)Oc2ccc(cc2)C2(CCCC2)CC(=O)N1` [Compound 2] here?
**A.** < 35 nM and 34 nM

**Q.** And the IC50 ([1]; IL-17A 5 ng/mL and TNF-α 10 ng/mL, 48 h, read-out: Keratinocyte IC50 (IL-8))?
**A.** 537 nM

**Q.** And the IC50 ([1]; read-out: IC50, IL-17A-stimulated production of IL-8 in keratinocytes)?
**A.** < 540 nM

**Q.** And the IC50 [5]?
**A.** > 30000 nM

**Q.** And the “binding to IL-17F (SPR)” value [2]?
**A.** did not show measurable binding

**Q.** And the Kd ([6]; read-out: IL-17A SPR KD)?
**A.** 199 nM

**Q.** And the Kd ([6]; read-out: SPR KD)?
**A.** < 200 nM

**Q.** What about the “binding to IL-17RA (SPR)” value ([3]; concentrations up to 13.3 μM) of the same compound?
**A.** did not show measurable binding

**Q.** How did the IC50 [5] turn out when `CNC(=O)[C@H]1Cc2ccc(cc2)NC(=O)C(NC(=O)c2ccnn2C)Cc2cc(ccc2Cl)-c2cccc(c2)CCC(=O)N1` (some centres unmarked) [Compound 3] was run?
**A.** > 30000 nM

**Q.** And the “binding to IL-17F (SPR)” value [2]?
**A.** no measurable binding; also recorded: did not show measurable binding

**Q.** What about the “binding to IL-17RA (SPR)” value ([3]; concentrations up to 13.3 μM) of the same compound?
**A.** no measurable binding; also recorded: did not show measurable binding

**Q.** With `C#CCNC(=O)[C@@H](Cc1ccc(NC(=O)[C@H](Cc2ccccc2F)NC(=O)c2ccnn2C)cc1)NC(=O)CC1(CC(=O)Nc2cccc(S(=O)(=O)F)c2)CCCC1` [Compound 4] as the compound, how does the “covalent labeling of IL-17A” value ([7]; in the absence of HAP) read?
**A.** covalently labeled

**Q.** What about the “principal site of modification of IL-17A” value ([7]; peptide mapping) of the same compound?
**A.** Tyr85

**Q.** And the IC50 [4]?
**A.** 200 nM
